“Also recorded” adds a separate entry of the source. Marks after values point to notes of the source that are not given here.
Tests used:
[1] = molecular target: T1, cathepsin L (Homo sapiens, UniProt P07711); test: Michaelis-Menten kinetics of hydrolysis by cysteine protease (Table 4); format: biochemical; conditions: average and standard deviation, at least 3 experiments
T1 construct: cathepsins B and L derived from a human liver; purchased Sigma-Aldrich Chemical Co; host or cells: human liver
Procedure: (§1) The reaction was performed under alkaline conditions.

[2] = molecular target: T2, cathepsin B (Homo sapiens, UniProt P07858); test: as above; format: biochemical; design: cathepsins B and L derived from a human liver; purchased Sigma-Aldrich Chemical Co; host or cells: human liver; conditions: average and standard deviation, at least 3 experiments
Procedure: as §1

[3] = molecular target: T3, papain (Carica papaya, UniProt P00784); test: Degree of hydrolysis by protease (Table 3); format: biochemical, papaya latex; conditions: after 2 hours; protease 10 μM; substrate 0.2 mM (G1-G3, L1-L3) or 0.1 mM (G4, L4); hydrolysate INH
T3 construct: papain and chymopapain derived from papaya latex; purchased Sigma-Aldrich Chemical Co; host or cells: papaya latex
T3 sequence (P00784 134-345): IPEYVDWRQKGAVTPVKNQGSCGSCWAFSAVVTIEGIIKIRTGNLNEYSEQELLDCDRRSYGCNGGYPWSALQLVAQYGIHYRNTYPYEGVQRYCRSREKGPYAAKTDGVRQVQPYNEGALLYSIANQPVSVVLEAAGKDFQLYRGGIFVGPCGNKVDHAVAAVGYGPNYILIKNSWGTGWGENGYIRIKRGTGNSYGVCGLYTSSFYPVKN
Procedure: (§2) A hydrolysate was measured using a HPLC system.

[4] = molecular target: T3, papain; test: Michaelis-Menten kinetics of hydrolysis by cysteine protease (Table 4); format: biochemical, papaya latex; conditions: average and standard deviation, at least 3 experiments
Procedure: as §1

[5] = molecular target: T4, chymopapain (Carica papaya, UniProt P14080); test: as above; format: biochemical, papaya latex; conditions: average and standard deviation, at least 3 experiments
T4 construct: papain and chymopapain derived from papaya latex; purchased Sigma-Aldrich Chemical Co; host or cells: papaya latex
Procedure: as §1

[6] = molecular target: T5, trypsin (Bos taurus, UniProt P00760); test: Protease-catalyzed hydrolysis, restored DBDY fluorescence (selectivity, FIGS. 11-19); format: biochemical, bovine; conditions: substrate 2.5 μM, protease 0.1 μM, two hours
T5 construct: chymotrypsin and trypsin derived from fetal bovine pancreas; purchased Sigma-Aldrich Chemical Co; host or cells: bovine pancreas
T5 sequence (P00760 24-246): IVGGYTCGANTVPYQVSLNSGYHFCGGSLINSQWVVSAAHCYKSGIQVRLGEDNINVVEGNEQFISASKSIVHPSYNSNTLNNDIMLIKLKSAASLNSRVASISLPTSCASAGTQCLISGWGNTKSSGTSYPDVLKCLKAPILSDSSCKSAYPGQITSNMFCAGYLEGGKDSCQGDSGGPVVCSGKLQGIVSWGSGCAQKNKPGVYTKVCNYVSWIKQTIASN
Procedure: as §1
(§3) The hydrolysis reaction was performed for two hours. […] Each experiment was repeated at least three times.

[7] = tested on: cysteine protease (papain, chymopapain, bromelain); test: as above; format: biochemical, papaya latex; pineapple stem; conditions: substrate 2.5 μM, protease 0.1 μM, two hours
Procedure: as §1, §3

[8] = molecular target: T6, pepsin (Sus scrofa, UniProt P00791); test: Degree of hydrolysis by protease (Table 3); format: biochemical, pig; conditions: after 2 hours; protease 10 μM; substrate 0.2 mM (G1-G3, L1-L3) or 0.1 mM (G4, L4); n.d. = no hydrolysis was detected; hydrolysate INH
T6 construct: pepsin derived from pig gastric mucosa; purchased Sigma-Aldrich Chemical Co; host or cells: pig gastric mucosa
Procedure: as §2

[9] = molecular target: T7, chymotrypsin (Bos taurus, UniProt P00766); test: Degree of hydrolysis by protease (Table 3); format: biochemical, bovine; conditions: after 2 hours, protease 10 μM, substrate 0.2 mM (G1-G3, L1-L3) or 0.1 mM (G4, L4), n.d. = no hydrolysis was detected, hydrolysate Gly-INH (G), Lys-INH (L1-L3)
T7 construct: chymotrypsin and trypsin derived from fetal bovine pancreas; purchased Sigma-Aldrich Chemical Co; host or cells: bovine pancreas
Procedure: as §2

[10] = molecular target: T5, trypsin; test: Degree of hydrolysis by protease (Table 3); format: biochemical, bovine; conditions: after 2 hours; protease 10 μM; substrate 0.2 mM (G1-G3, L1-L3) or 0.1 mM (G4, L4); n.d. = no hydrolysis was detected; hydrolysate INH
Procedure: as §2

[11] = molecular target: T2, cathepsin B; test: Selective hydrolysis by cathepsins, fluorescence (FIG. 20); format: biochemical; design: cathepsins B and L derived from a human liver; purchased Sigma-Aldrich Chemical Co; host or cells: human liver; conditions: substrate 1.0 μM, protease 10 mM, 30 minutes
Procedure: as §1
(§4) The results of experiments were illustrated in FIG. 20. Since the hydrolysis by cathepsin B was faster than the hydrolyses by papain and chymopapain, the reaction was performed with a substrate (concentration: 1.0 μM) and a protease (concentration: […]) of which the concentrations were set lower than those in Experimental Example 2 (substrate (concentration: 2.5 μM) and protease (concentration: 0.1 μM) reacted for two hours) for 30 minutes in FIG. 20. C1, C2, CB, CL, and CS represented on an X-axis respectively denote papain, chymopapain, cathepsin B, cathepsin L, and cathepsin S. Each experiment was repeated at least three times.

[12] = molecular target: T1, cathepsin L; test: as above; format: biochemical; conditions: substrate 1.0 μM, protease 10 mM, 30 minutes
Procedure: as §1, §4

[13] = molecular target: T8, cathepsin S (Homo sapiens, UniProt P25774); test: as above; format: biochemical; conditions: substrate 1.0 μM, protease 10 mM, 30 minutes
T8 construct: cathepsin S derived from a human spleen; purchased Sigma-Aldrich Chemical Co; host or cells: human spleen
Procedure: as §1, §4

[14] = tested on: other proteases (non-cysteine proteases of the 13-protease panel); test: Protease-catalyzed hydrolysis, restored DBDY fluorescence (selectivity, FIGS. 11-19); format: biochemical; conditions: substrate 2.5 μM, protease 0.1 μM, two hours
Procedure: as §1, §3

[15] = molecular target: thermolysin (Bacillus thermoproteolyticus, UniProt P00800); conditions: after 2 hours; protease 10 μM; substrate 0.2 mM (G1-G3, L1-L3) or 0.1 mM (G4, L4); n.d. = no hydrolysis was detected; hydrolysate INH
Procedure: For the meaningful comparison of proteases, a hydrolysis reaction was performed under the optimum conditions as reported in other documents (regarding chymotrypsin, subtilisin, thermolysin and pepsin, refer to R. Beynon, J. S. Bond, Proteolytic Enzymes (Second Edition), Oxford University Press, 2001, pp. 295-316; regarding trypsin, proteinase K, carboxy peptidase A, collagenase, dispase, aspergillopepsin, papain, chymopapain, bromelain, cathepsin B, cathepsin L, and cathepsin S, refer to the catalog of Sigma-Aldrich Corporation).
Before the reaction, the mixtures of the reaction buffer solutions and proteases were previously incubated for 30 minutes in a water bath in which the temperature was adjusted to an analysis temperature. The hydrolysis reaction was initiated by adding a substrate dissolved in DMSO. The volume of the added substrate solution was controlled such that the final concentration of DMSO was lower than 1.5% (v/v).
A hydrolysate was measured using a HPLC system. In order to prepare a sample, a hydrolysis reaction was terminated by adding 2% (v/v) 1M HCl with respect to a serine protease, cysteine protease and metalloprotease, and adding 1M NaOH with respect to an aspartic protease. The separation was performed using the mixture of 10 mM-ammonium bicarbonate and acetonitrile as an eluent in C-18 column (particle size: 5 μm, 250 mm×4.6 mm, pore size: 80 Å, Phenomenex, USA). The elution was performed for 15 minutes, while the linear gradient of acetonitrile was increased from 0 to 60%. The flow rate and separation temperature of the eluent were maintained at 1 mL min^−1 and 35° C. The hydrolysate was detected at a wavelength of 254 nm.
Based on the report that a hydrophobic amino acid such as phenylalanine was preferred at a P2 position in most of the papain-like cysteine proteases, Boc-aromatic amino acid-Gly-INH and Boc-aromatic amino acid-Lys-INH were prepared in particular, and experimented as a substrate with respect to chymotrypsin, trypsin, papain, pepsin and thermolysis.

T1 sequence (P07711 114-333): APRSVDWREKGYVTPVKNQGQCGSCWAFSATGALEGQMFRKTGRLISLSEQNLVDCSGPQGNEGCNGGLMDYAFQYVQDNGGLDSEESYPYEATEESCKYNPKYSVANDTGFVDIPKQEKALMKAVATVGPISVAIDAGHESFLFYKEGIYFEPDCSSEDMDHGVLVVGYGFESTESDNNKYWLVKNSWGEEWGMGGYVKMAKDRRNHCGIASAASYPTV
T4 sequence (P14080 135-352): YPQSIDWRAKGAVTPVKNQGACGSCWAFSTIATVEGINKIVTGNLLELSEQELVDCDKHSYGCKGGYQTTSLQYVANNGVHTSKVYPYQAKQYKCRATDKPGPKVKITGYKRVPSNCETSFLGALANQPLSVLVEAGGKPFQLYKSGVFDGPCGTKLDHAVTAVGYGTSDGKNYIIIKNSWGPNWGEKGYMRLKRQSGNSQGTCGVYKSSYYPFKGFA
T8 sequence (P25774 115-331): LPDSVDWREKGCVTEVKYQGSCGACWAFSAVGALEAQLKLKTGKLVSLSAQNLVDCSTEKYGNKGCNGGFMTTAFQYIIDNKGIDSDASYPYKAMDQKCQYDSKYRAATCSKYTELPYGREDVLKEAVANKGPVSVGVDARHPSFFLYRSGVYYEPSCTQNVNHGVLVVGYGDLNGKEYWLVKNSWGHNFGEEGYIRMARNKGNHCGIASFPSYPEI
T6 sequence (P00791 60-385): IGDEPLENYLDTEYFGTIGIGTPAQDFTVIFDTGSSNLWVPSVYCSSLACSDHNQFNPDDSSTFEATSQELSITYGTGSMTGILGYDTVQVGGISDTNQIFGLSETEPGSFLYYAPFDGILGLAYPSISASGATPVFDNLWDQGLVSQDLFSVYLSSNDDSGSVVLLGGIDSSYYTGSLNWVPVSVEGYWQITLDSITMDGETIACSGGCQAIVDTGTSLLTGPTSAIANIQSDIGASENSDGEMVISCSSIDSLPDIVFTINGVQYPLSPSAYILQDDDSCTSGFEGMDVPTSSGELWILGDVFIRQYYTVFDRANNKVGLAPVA
Chain of thermolysin (P00800 233-548): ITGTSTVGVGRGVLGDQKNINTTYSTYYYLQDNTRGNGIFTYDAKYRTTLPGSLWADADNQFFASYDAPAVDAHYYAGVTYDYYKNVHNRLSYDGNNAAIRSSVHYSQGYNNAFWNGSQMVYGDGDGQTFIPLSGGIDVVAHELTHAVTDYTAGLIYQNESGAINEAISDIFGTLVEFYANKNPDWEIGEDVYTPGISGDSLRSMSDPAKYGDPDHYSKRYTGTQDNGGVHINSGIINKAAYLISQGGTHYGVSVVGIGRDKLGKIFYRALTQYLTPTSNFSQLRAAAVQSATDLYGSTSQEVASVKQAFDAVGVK

| Compound | Kcat [1] | Km [1] | Kcat [2] | Km [2] | degree of hydrolysis by Papain [3] | Kcat [4] | Km [4] | Kcat [5] | Km [5] | hydrolysis by trypsin (increased fluorescence) [6] | hydrolysis by cysteine proteases (increased fluorescence) [7] | degree of hydrolysis by Pepsin [8] | degree of hydrolysis by Chymotrypsin [9] | degree of hydrolysis by Chymotrypsin ([9]; listed as DBDY-(Lys-INH)2) | degree of hydrolysis by Trypsin [10] | hydrolysis by cathepsin B [11] | hydrolysis by cathepsin L [12] | hydrolysis by cathepsin S [13] | hydrolysis by other (non-cysteine) proteases [14] | degree of hydrolysis by Thermolysin [15] |
| --- | --- | --- | --- | --- | --- | --- | --- | --- | --- | --- | --- | --- | --- | --- | --- | --- | --- | --- | --- | --- |
| CC(C)(C)OC(=O)NC(Cc1ccc(O)c(-c2cc(CC(NC(=O)OC(C)(C)C)C(=O)NC(CCCCN)C(=O)NNC(=O)c3ccncc3)ccc2O)c1)C(=O)NC(CCCCN)C(=O)NNC(=O)c1ccncc1 (centres unmarked) [Substrate L4, DBDY-(Lys-INH)2] | 0.00333 ± 0.00017 s⁻¹ | 1.17 ± 0.09 µM | 0.0362 ± 0.0025 s⁻¹ | 2.01 ± 0.05 µM | 44.9 ± 2.8% | 0.0173 ± 0.00183 s⁻¹ | 7.2 ± 0.8 µM | 0.0005 ± 0.00017 s⁻¹ | 2.2 ± 0.28 µM | hydrolyzed; also recorded: slightly hydrolyzed | hydrolyzed; also recorded: selectivity for cysteine proteases | 1.04 ± 0.03% | 7.15 ± 0.47 ^c % | hardly hydrolyzed | 46.8 ± 1.7% | hydrolyzed | hydrolyzed | not hydrolyzed |  |  |
| CC(C)(C)OC(=O)NC(Cc1ccc(O)c(-c2cc(CC(NC(=O)OC(C)(C)C)C(=O)NCC(=O)NNC(=O)c3ccncc3)ccc2O)c1)C(=O)NCC(=O)NNC(=O)c1ccncc1 (centres unmarked) [Substrate G4, DBDY-(Gly-INH)2] | 0.0015 ± 0.00033 s⁻¹ | 12.9 ± 3.69 µM | 0.0112 ± 0.001 s⁻¹ | 2.88 µM | 62.2 ± 2.1% | 0.0257 ± 0.005 s⁻¹ | 7.72 ± 1.25 µM | 0.00567 ± 0.0005 s⁻¹ | 4 ± 0.25 µM |  | showed sensitivity and selectivity for the cysteine protease; also recorded: selectivity for cysteine proteases | 2.98 ± 0.07% | hardly hydrolyzed |  |  | hydrolyzed only by cathepsin B | hydrolyzed only by cathepsin B | not hydrolyzed | no hydrolysis by other proteases | 0.74 ± 0.03% |
